Reference: article PMC6934184, “Selective DNA-PKcs inhibition extends the therapeutic index of localized radiotherapy and chemotherapy” (The Journal of Clinical Investigation, 2019)

Target: T1, ABL1 M351T (Homo sapiens, UniProt P00519, M351T)
T1 construct: purchased Thermo Fisher Scientific (Life Technologies) SelectScreen
Test: SelectScreen LanthaScreen
Format: binding
Details: read-out: % displacement
Outline: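 NU5455 was profiled across the SelectScreen Broad panel of kinase activity and binding assays. Z'LYTE reactions such as CSF1R ran at apparent Km ATP, while the Adapta CAMK1 assay used ATP listed as 10. Values are given as percent.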

## CN(C(=O)CN1CCOCC1)c1ccc2sc3c(-c4cccc5c(=O)cc(N6CC7CCC(C6)O7)oc45)cccc3c2c1 [NU5455]
  inhibition at 1 µM: -1%
